Results on one compound are retold here after paper PMC5827777, “Synthesis and biological evaluation of RGD and isoDGR peptidomimetic-α-amanitin conjugates for tumor-targeting” (Beilstein Journal of Organic Chemistry, 2018).

Broadly, the IC50 is the midpoint of a concentration-inhibition curve.

The target of assay [1] is T1, Recombinant human integrin αVβ3 (Homo sapiens, UniProt P05106+P06756).
T1 construct: purchased R&D Systems, Minneapolis, MN, USA
Nature of the assay: Inhibition of biotinylated vitronectin binding to purified αVβ3 receptor (solid phase receptor binding assay). Particulars: conjugates, Table 2; mean ± SD of triplicate determinations. As for the experimental part:
Conjugates 7–11 were evaluated for their ability to inhibit biotinylated vitronectin binding to the purified αVβ3 receptor. Screening assays were performed by incubating the immobilized integrin receptor with solutions of the cyclo[DKP-RGD]-α-amanitin and cyclo[DKP-isoDGR]-α-amanitin conjugates 7–11 at different concentrations (10^−12 to 10^−5 M) in the presence of biotinylated vitronectin (1 µg mL^−1) and measuring bound vitronectin. […]
to assist the dissolution). The solution obtained was filtered (polypropylene, 0.45 μm, 13 mm ø, PK/100) and injected in the HPLC, affording purified products. Purity analyses were carried on a Dionex Ultimate 3000 instrument equipped with a Dionex RS Variable Wavelenght detector (column: Atlantis® Prep T3 OBDTM 5 μm 19 × 100 mm). The analyte (1 mg) was dissolved in 1 mL of H2O and was injected using the same gradient used in the purification step. The analysis of the integrals and the relative percentage of purity were performed with the software Chromeleon 6.80 SR11 Build 3161. Also, preparative HPLC LaPrep∑ equipped with autosampler AS3950 and a Phenomenex Luna C-18(2) column, 10 µm, 250 × 21.2 mm, with precolumn at 30 mL/min flow rate and analytical HPLC performed on Hitachi Chromaster (column oven Chromaster 5310, pump Chromaster 5110, autosampler Chromaster 5210, DAD Chromaster 5430) equipped with a Phenomenex Luna C-18(2) column, 10 µm, 250 × 4.6 mm, with precolumn at 1.4 mL/min flow rate were used. Freeze-drying: The product was dissolved in water and frozen with dry ice. The freeze-drying was carried out at least for 48 h at −50 °C using the instrument 5Pascal Lio5P DGT.
Solid phase receptor binding assays
Recombinant human integrin αVβ3 (R&D Systems, Minneapolis, MN, USA) was diluted to 0.5 µg/mL in coating buffer containing 20 mM Tris-HCl (pH 7.4), 150 mM NaCl, 1 mM MnCl2, 2 mM CaCl2, and 1 mM MgCl2. […] Absorbance at 415 nm was read in a SynergyTM HT Multi-Detection Microplate Reader (BioTek Instruments, Inc.). […]

Assay [2] relates to U87 cells (human glioblastoma, αVβ3+). Kind of assay: cells. It is filed as cell-based. As for the experimental part:
The cell lines were treated with different concentrations of the free drug α-amanitin and conjugates 7–11 for 96 hours. […]
described recently.[S1] The SNP profiles matched known profiles or were unique. The purity of the cell lines was validated using the Multiplex cell Contamination Test by Multiplexion (Heidelberg, Germany) as described recently.[S2] No mycoplasma, SMRV or interspecies contamination was detected. U87-MG, MDA-MB 468 and A549 cells were cultivated continuously for not more than 3 months in MEM Eagle´s, DMEM or Ham´s F12 medium, respectively, supplemented with 10% heat inactivated fetus calf serum, L-glutamine and antibiotics. Cell lines were maintained at 37 °C and 5% CO2 in a high humidity atmosphere.
Cell therapy and viability assay
Cell viability assays were performed in U87-MG, A549 and MDA-MB 468 cell lines according to the following procedure: 2 × 10^3 cells/well were plated in 96-well black clear bottom plates (Perkin Elmer) and incubated overnight. 1:5 serial dilutions of compounds 7–11 were prepared in cell culture media. The compounds were added to the cell culture and incubated for additional 96 h. Starting concentration of compounds 7–11 in the wells was 1 × 10−5 M and cell viability was determined with the CellTiterGlo 2.0 assay (Promega) in accordance to manufacturer’s instructions. The cell viability was calculated in relation to the non-treated controls for each cell line. All samples were measured in triplicate. Data analysis was carried out using software GraphPad Prism (GraphPad Software Inc., La Jolla, CA, USA).
Competition experiment of compounds 10 and 11
The competition experiment s were performed in U87-MG and MDA-MB 468 cell lines according to the following procedure: 2 × 10^3 cells/well were plated in 96-well black clear bottom plates (Perkin Elmer) and incubated overnight. A solution containing 1 × 10−4 M of the conjugates 10 or 11 and 5 × 10−3 M of cilengitide (50-fold excess of ligand in comparison to the conjugate) was prepared in the growth medium and 1:5 serial dilutions were prepared in cell culture media. The compounds were added to cell culture and incubated for 96 h. The starting concentration of the compounds in the wells was 0.01 mM whereas that of cilengitide was 0.5 mM. The cell viability was determined with the CellTiterGlo 2.0 assay (Promega) in accordance to manufacturer’s instructions and the viability was calculated in relation to the non-treated controls for each cell line. All samples were measured in triplicate. Data analysis was carried out using software GraphPad Prism (GraphPad Software Inc., La Jolla, CA, USA).
[S1] F. Castro, W. G. Dirks, S. Fähnrich, A. Hotz-Wagenblatt, M. Pawlita, M. Schmitt, Int. J. Cancer […]
[S2] M. Schmitt, M. Pawlita, Nucleic Acids Res. 2009, 37, e119.

T1 sequence (P06756 31-992 limits assumed): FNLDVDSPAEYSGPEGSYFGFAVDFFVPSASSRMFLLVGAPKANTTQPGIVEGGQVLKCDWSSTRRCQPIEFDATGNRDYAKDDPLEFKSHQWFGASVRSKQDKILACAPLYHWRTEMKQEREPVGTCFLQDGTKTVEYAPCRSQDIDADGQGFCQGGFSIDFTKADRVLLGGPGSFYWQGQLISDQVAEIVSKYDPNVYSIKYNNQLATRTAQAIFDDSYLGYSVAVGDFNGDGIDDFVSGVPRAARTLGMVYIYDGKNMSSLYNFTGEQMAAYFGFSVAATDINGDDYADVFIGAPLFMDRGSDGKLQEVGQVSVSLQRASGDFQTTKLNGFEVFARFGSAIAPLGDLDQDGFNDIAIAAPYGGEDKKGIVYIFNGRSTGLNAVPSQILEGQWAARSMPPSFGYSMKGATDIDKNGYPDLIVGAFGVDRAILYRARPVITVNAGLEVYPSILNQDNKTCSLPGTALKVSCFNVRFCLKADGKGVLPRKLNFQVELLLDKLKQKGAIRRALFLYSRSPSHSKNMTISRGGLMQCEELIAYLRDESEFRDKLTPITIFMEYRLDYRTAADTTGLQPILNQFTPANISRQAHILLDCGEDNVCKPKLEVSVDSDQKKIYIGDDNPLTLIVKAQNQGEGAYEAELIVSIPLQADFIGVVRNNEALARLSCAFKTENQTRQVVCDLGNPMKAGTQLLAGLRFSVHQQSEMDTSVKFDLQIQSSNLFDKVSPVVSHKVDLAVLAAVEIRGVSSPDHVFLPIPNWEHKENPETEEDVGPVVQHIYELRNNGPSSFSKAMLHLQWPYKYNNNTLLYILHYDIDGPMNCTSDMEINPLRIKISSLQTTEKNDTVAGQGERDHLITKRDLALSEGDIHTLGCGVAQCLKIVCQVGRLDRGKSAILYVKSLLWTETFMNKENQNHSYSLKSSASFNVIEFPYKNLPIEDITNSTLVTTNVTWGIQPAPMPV
T1 sequence (P05106 27-718 limits assumed): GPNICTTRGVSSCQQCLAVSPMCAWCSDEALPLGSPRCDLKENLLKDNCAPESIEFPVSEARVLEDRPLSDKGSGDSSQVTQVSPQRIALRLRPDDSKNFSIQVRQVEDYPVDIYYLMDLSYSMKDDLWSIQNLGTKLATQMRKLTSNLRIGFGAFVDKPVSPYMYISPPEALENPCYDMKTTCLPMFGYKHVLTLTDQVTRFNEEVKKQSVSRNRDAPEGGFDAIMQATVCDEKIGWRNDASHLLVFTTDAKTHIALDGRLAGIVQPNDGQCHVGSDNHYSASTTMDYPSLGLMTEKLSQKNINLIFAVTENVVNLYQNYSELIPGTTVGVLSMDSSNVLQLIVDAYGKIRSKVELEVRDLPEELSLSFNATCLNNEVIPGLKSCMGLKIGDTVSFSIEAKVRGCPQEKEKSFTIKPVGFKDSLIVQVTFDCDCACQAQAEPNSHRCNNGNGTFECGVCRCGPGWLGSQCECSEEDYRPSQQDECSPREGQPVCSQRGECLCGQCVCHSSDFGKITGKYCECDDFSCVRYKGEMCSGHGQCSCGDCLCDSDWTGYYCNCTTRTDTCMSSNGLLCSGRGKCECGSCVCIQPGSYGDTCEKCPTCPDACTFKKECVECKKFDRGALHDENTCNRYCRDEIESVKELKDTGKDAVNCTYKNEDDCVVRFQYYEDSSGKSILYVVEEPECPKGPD

With `CC[C@H](C)[C@@H]1NC(=O)CNC(=O)[C@@H]2Cc3c([nH]c4cc(OCc5ccc(NC(=O)[C@H](C)NC(=O)[C@@H](NC(=O)CCCC(=O)NCc6ccc(CN7C(=O)[C@H]8CC(=O)N[C@H](C(=O)O)CC(=O)NCC(=O)N[C@@H](CCCNC(=N)N)C(=O)NC[C@H]7C(=O)N8)cc6)C(C)C)cc5)ccc34)[S@+]([O-])C[C@H](NC(=O)CNC1=O)C(=O)N[C@@H](CC(N)=O)C(=O)N1C[C@H](O)C[C@H]1C(=O)N[C@@H]([C@@H](C)[C@@H](O)CO)C(=O)N2` [Compound 10, cyclo[DKP-isoDGR]-Val-Ala-α-amanitin], the IC50 came out at 6.4 ± 1.9 nM in assay [1] and 143 ± 33.8 nM in assay [2] (96 hours treatment, triplicate, read-out: IC50 U87 (αVβ3+), inhibition of cell viability). In addition, the “more potent than α-amanitin” value in assay [2] (in U87, A549 and MDA-MB-468 cell lines, Table 3 entry 1 vs entry 5) is recorded as 2.4–3.1 times.
